Data taken from PubChem BioAssay AID1919014 (Molecular Pharmacology Branch, DTP, NCI, 2023).

Test system: NCI-H1341 complex spheroids, percent test/control
Experiment: Anticancer human tumor NCI-H1341 cell line growth inhibition [AhR];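 further: spheroids exposed to agents for seven days before readout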
Conditions: for IC50: curve of first compound; for viability, T/C: stronger effect = lower value
How it was run: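 Complex tumor spheroids co-cultured with HUVEC and human MSC stroma; AhR antagonists tested in combination with standard-of-care and investigational agents. Top concentration at or near clinical Cmax (else 10 microM), half-log dilutions; growth expressed as percent test/control.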

[1] = second compound 0.1 µM, first compound 0.0316 µM
[2] = second compound 0.1 µM, first compound 0.1 µM
[3] = second compound 0.1 µM, first compound 0.316 µM
[4] = second compound 0.1 µM, first compound 1 µM
[5] = second compound 0.1 µM, first compound 3.16 µM
[6] = second compound 0.1 µM, first compound 10 µM
[7] = second compound 0.316 µM, first compound 0.0316 µM
[8] = second compound 0.316 µM, first compound 0.1 µM
[9] = second compound 0.316 µM, first compound 0.316 µM
[10] = second compound 0.316 µM, first compound 1 µM
[11] = second compound 0.316 µM, first compound 3.16 µM
[12] = second compound 0.316 µM, first compound 10 µM
[13] = second compound 1 µM, first compound 0.0316 µM
[14] = second compound 1 µM, first compound 0.1 µM
[15] = second compound 1 µM, first compound 0.316 µM
[16] = second compound 1 µM, first compound 1 µM
[17] = second compound 1 µM, first compound 3.16 µM
[18] = second compound 1 µM, first compound 10 µM
[19] = second compound 3.16 µM, first compound 0.0316 µM
[20] = second compound 3.16 µM, first compound 0.1 µM
[21] = second compound 3.16 µM, first compound 0.316 µM
[22] = second compound 3.16 µM, first compound 1 µM
[23] = second compound 3.16 µM, first compound 3.16 µM
[24] = second compound 3.16 µM, first compound 10 µM
[25] = second compound 10 µM, first compound 0.0316 µM
[26] = second compound 10 µM, first compound 0.1 µM
[27] = second compound 10 µM, first compound 0.316 µM
[28] = second compound 10 µM, first compound 1 µM
[29] = second compound 10 µM, first compound 3.16 µM
[30] = second compound 10 µM, first compound 10 µM

In the case of `CC(C)c1c(-c2ccccc2)nc2c(C#N)c[nH]n2c1=O` + Cc1ccccc1N=Nc1ccc(NC(=O)c2ccnn2C)c(C)c1, the IC50 (second compound 0.1 µM) is reported as > 10000 nM, the IC50 (second compound 0.316 µM) is reported as > 10000 nM and the IC50 (second compound 1 µM) is reported as > 10000 nM. The IC50 (second compound 3.16 µM) was > 10000 nM, the IC50 (second compound 10 µM) was < 31.6 nM and the viability, T/C [1] was 84.2%. It also gave a viability, T/C [2] of 87.6%, a viability, T/C [3] of 86.5% and a viability, T/C [4] of 87.5%. For the same compound, the viability, T/C [5] was 81.7%, the viability, T/C [6] was 96.4% and the viability, T/C [7] was 99%. The viability, T/C [8] was 82.8%, the viability, T/C [9] was 84.2% and the viability, T/C [10] was 92.2%. It also gave a viability, T/C [11] of 97.5%, a viability, T/C [12] of 83.2% and a viability, T/C [13] of 90.1%. The viability, T/C [14] was 93.8%, the viability, T/C [15] was 74% and the viability, T/C [16] was 81.7%. It also gave a viability, T/C [17] of 83.8%, a viability, T/C [18] of 95.7% and a viability, T/C [19] of 72.2%. For the same compound, the viability, T/C [20] was 77.1%, the viability, T/C [21] was 59.5% and the viability, T/C [22] was 72.2%. It also gave a viability, T/C [23] of 73.3%, a viability, T/C [24] of 76.4% and a viability, T/C [25] of 44.9%. The viability, T/C [26] was 49%, the viability, T/C [27] was 52% and the viability, T/C [28] was 48.6%. The viability, T/C [29] was 59.3% and the viability, T/C [30] was 42.9%.

`CC1COCCN1c1cc(-c2ccnn2C)c2ccnc(-c3ccn[nH]3)c2n1` (stereo not given) + Cc1ccccc1N=Nc1ccc(NC(=O)c2ccnn2C)c(C)c1 gave an IC50 (second compound 0.1 µM) of 97.6 nM, an IC50 (second compound 0.316 µM) of 60.6 nM and an IC50 (second compound 1 µM) of 113 nM. It also gave an IC50 (second compound 3.16 µM) of 67.5 nM, an IC50 (second compound 10 µM) of 9.13 nM and a viability, T/C (second compound 0.1 µM, first compound 0.00316 µM) of 98.2%. For the same compound, the viability, T/C (second compound 0.1 µM, first compound 0.01 µM) was 99.1%, the viability, T/C [1] was 74.2% and the viability, T/C [2] was 48.5%. For the same compound, the viability, T/C [3] was 38.3%, the viability, T/C [4] was 26.2% and the viability, T/C (second compound 0.316 µM, first compound 0.00316 µM) was 104%. For the same compound, the viability, T/C (second compound 0.316 µM, first compound 0.01 µM) was 102%, the viability, T/C [7] was 65.6% and the viability, T/C [8] was 39.3%. For the same compound, the viability, T/C [9] was 34.8%, the viability, T/C [10] was 29% and the viability, T/C (second compound 1 µM, first compound 0.00316 µM) was 82.6%. For the same compound, the viability, T/C (second compound 1 µM, first compound 0.01 µM) was 92%, the viability, T/C [13] was 70.8% and the viability, T/C [14] was 52.6%. The viability, T/C [15] was 34.3%, the viability, T/C [16] was 25.9% and the viability, T/C (second compound 3.16 µM, first compound 0.00316 µM) was 84%. It also gave a viability, T/C (second compound 3.16 µM, first compound 0.01 µM) of 72.7%, a viability, T/C [19] of 55.1% and a viability, T/C [20] of 44.4%. The viability, T/C [21] was 40.8%, the viability, T/C [22] was 27.6% and the viability, T/C (second compound 10 µM, first compound 0.00316 µM) was 53.8%. It also gave a viability, T/C (second compound 10 µM, first compound 0.01 µM) of 51%, a viability, T/C [25] of 44.3% and a viability, T/C [26] of 37.1%. It also gave a viability, T/C [27] of 30.7% and a viability, T/C [28] of 25.6%.

For `COc1ccc([C@@H](O)c2cc(-c3ncnc4cc(N5CCOCC5)ccc34)c(F)cc2Cl)nn1` + Cc1ccccc1N=Nc1ccc(NC(=O)c2ccnn2C)c(C)c1, the IC50 (second compound 0.1 µM) was 903 nM, the IC50 (second compound 0.316 µM) was 791 nM and the IC50 (second compound 1 µM) was 631 nM. The IC50 (second compound 3.16 µM) was 461 nM, the IC50 (second compound 10 µM) was < 31.6 nM and the viability, T/C [1] was 98.3%. The viability, T/C [2] was 91.6%, the viability, T/C [3] was 70.8% and the viability, T/C [4] was 51.5%. For the same compound, the viability, T/C [5] was 19.3%, the viability, T/C [6] was 8.09% and the viability, T/C [7] was 87.2%. The viability, T/C [8] was 68.9%, the viability, T/C [9] was 70.6% and the viability, T/C [10] was 46.4%. The viability, T/C [11] was 19.9%, the viability, T/C [12] was 8.42% and the viability, T/C [13] was 75.3%. It also gave a viability, T/C [14] of 67.9%, a viability, T/C [15] of 62.8% and a viability, T/C [16] of 42%. For the same compound, the viability, T/C [17] was 21.6%, the viability, T/C [18] was 8.86% and the viability, T/C [19] was 73%. The viability, T/C [20] was 59.9%, the viability, T/C [21] was 58.7% and the viability, T/C [22] was 38.5%. The viability, T/C [23] was 18%, the viability, T/C [24] was 5.82% and the viability, T/C [25] was 47.2%. The viability, T/C [26] was 51.8%, the viability, T/C [27] was 39.3% and the viability, T/C [28] was 29.2%. The viability, T/C [29] was 14.3% and the viability, T/C [30] was 7.84%.

Work on `O=C(C=Cn1cnc(-c2cc(C(F)(F)F)cc(C(F)(F)F)c2)n1)NNc1cnccn1` + Cc1ccccc1N=Nc1ccc(NC(=O)c2ccnn2C)c(C)c1 yielded an IC50 (second compound 0.1 µM) of 51.3 nM, an IC50 (second compound 0.316 µM) of 49.7 nM and an IC50 (second compound 1 µM) of 53.6 nM. For the same compound, the IC50 (second compound 3.16 µM) was < 9.49 nM, the IC50 (second compound 10 µM) was < 9.49 nM and the viability, T/C (second compound 0.1 µM, first compound 0.00949 µM) was 85.4%. For the same compound, the viability, T/C (second compound 0.1 µM, first compound 0.03 µM) was 63.4%, the viability, T/C (second compound 0.1 µM, first compound 0.0949 µM) was 35.2% and the viability, T/C (second compound 0.1 µM, first compound 0.3 µM) was 12.9%. The viability, T/C (second compound 0.1 µM, first compound 0.949 µM) was 8.66%, the viability, T/C (second compound 0.1 µM, first compound 3 µM) was 7.84% and the viability, T/C (second compound 0.316 µM, first compound 0.00949 µM) was 69.5%. It also gave a viability, T/C (second compound 0.316 µM, first compound 0.03 µM) of 59%, a viability, T/C (second compound 0.316 µM, first compound 0.0949 µM) of 38.3% and a viability, T/C (second compound 0.316 µM, first compound 0.3 µM) of 15.2%. It also gave a viability, T/C (second compound 0.316 µM, first compound 0.949 µM) of 9.67%, a viability, T/C (second compound 0.316 µM, first compound 3 µM) of 6.9% and a viability, T/C (second compound 1 µM, first compound 0.00949 µM) of 67.7%. The viability, T/C (second compound 1 µM, first compound 0.03 µM) was 66.7%, the viability, T/C (second compound 1 µM, first compound 0.0949 µM) was 34.5% and the viability, T/C (second compound 1 µM, first compound 0.3 µM) was 15.4%. The viability, T/C (second compound 1 µM, first compound 0.949 µM) was 8.51%, the viability, T/C (second compound 1 µM, first compound 3 µM) was 8.16% and the viability, T/C (second compound 3.16 µM, first compound 0.00949 µM) was 47.9%. The viability, T/C (second compound 3.16 µM, first compound 0.03 µM) was 40.7%, the viability, T/C (second compound 3.16 µM, first compound 0.0949 µM) was 30.6% and the viability, T/C (second compound 3.16 µM, first compound 0.3 µM) was 13.2%. It also gave a viability, T/C (second compound 3.16 µM, first compound 0.949 µM) of 11.4%, a viability, T/C (second compound 3.16 µM, first compound 3 µM) of 6.99% and a viability, T/C (second compound 10 µM, first compound 0.00949 µM) of 40.7%. The viability, T/C (second compound 10 µM, first compound 0.03 µM) was 35%, the viability, T/C (second compound 10 µM, first compound 0.0949 µM) was 24.2% and the viability, T/C (second compound 10 µM, first compound 0.3 µM) was 15.6%. For the same compound, the viability, T/C (second compound 10 µM, first compound 0.949 µM) was 10.8% and the viability, T/C (second compound 10 µM, first compound 3 µM) was 6.32%.
